Test results: PMC12698583, “Efficacy of sulfonamides targeting malic enzyme in an animal model of Chagas disease” (Frontiers in Pharmacology, 2025)
Blank lines part the entries; values can stand above or below the molecule they belong to.

Tests used:
[1] = Host cell cytotoxicity in the image-based assay (total host cells); conditions: rat, H9c2 rat cardiomyoblasts (infected with T. cruzi), 72 h treatment
Method: Tested compounds were dissolved and serially diluted in dimethylsulfoxide (DMSO) using a half-log dilution across six concentrations. Intermediate plates were prepared by diluting compounds 1:25 in DMEM (Dulbecco’s Modified Eagle Medium) with 10% FBS (Fetal Bovine Serum). The assay was based on [Fredo Naciuk et al. (2020)], with minor modifications. Briefly, T. cruzi trypomastigotes (from LLC-MK2 cultures, 6 days post-infection) were used to infect H9c2 rat cardiomyoblasts overnight (16–18 h) at MOI 1. After washing with PBS, cells were trypsinized and resuspended in DMEM at 2.3 × 10^4 cells/mL. Then, 65 μL per well was plated in 384-well plates and incubated for 24 h (37 °C, 5% CO2, >95% humidity). Subsequently, 7.5 μL of compound solution was added (final [DMSO] 0.4%). After 72 h of treatment, cells were fixed with 4% PFA and stained with Hoechst 33342 (4 μg/mL). Six images per well were acquired using the Operetta system (PerkinElmer) and analyzed with Columbus software to quantify infected cells (≥3 cytoplasmic parasite spots).

[2] = Tolerability study, Hippocratic screening; type: in vivo, mice; parameters: Hypnosis / Sedation / Urination / Tachypnea / Muscle tone / Convulsions / Salivation / Tremors / Vocalization / Limb abduction / Ataxia: scale not given here; conditions: 150 mg/kg PO
Method: A tolerability study of drug candidates was conducted using the Hippocratic screening protocol, focusing on the assessment of effects on the central nervous system (CNS) and autonomic nervous system (ANS). Each group containing 3 animals received a 150 mg/kg dose of the compounds via oral (PO) administration (gavage). During the experiment, various behavioral and physiological parameters were monitored at regular intervals, ranging from 0 to 24 hours after administration of the substance.

Kinetic solubility = type: physicochemical; conditions: 25 °C
Method: These conditions simulate stomach acidity, plasma neutrality, and intestinal basicity.
For the chemical stability experiment, the compounds were evaluated under the same conditions with an additional incubation at 37 °C for a period of 24 h. The analysis was performed using an analytical method developed and validated by high-performance liquid chromatography with UV detection (HPLC-UV). Compounds were quantified in different pH media by comparing the areas where the substances were completely soluble with those in the reaction media. The experiments were performed in a triplicate.
These conditions simulate stomach acidity, plasma neutrality, and intestinal basicity. […] For the chemical stability experiment, the compounds were evaluated under the same conditions with an additional incubation at 37°C for a period of 24 hours. The analysis was performed using an analytical method developed and validated by high-performance liquid chromatography with UV detection (HPLC-UV). Compounds were quantified in the different pH media by comparing the areas where the substances were completely soluble with those in the reaction media. The experiments were performed in triplicate.

[3] = across pH conditions (1.7, 7.4, 8.9)

- Kinetic solubility (Kinetic solubility; acidic pH (1.7), 5 µM): 65%
- Kinetic solubility (Kinetic solubility; [3]): above 60%
- Kinetic solubility (Kinetic solubility; basic pH (8.9), 5 µM): 74%
- Kinetic solubility (Kinetic solubility; neutral pH (7.4), 5 µM): 65%
SMILES: CC(C)Oc1ccc(NS(=O)(=O)c2cccc(NC(=O)c3cnccn3)c2)cc1 [AC-M110, N-(3-(N-(4-isopropoxyphenyl)sulfamoyl)phenyl)pyrazine-2-carboxamide]
- CC50 at 72 h [1]: 63 µM
- Ataxia ([2]; 0-15 min): 0A
- Convulsions ([2]; 0-15 min): 0A
- Hypnosis ([2]; 0-15 min): 0A
- Limb abduction ([2]; 0-15 min): 0A
- Muscle tone ([2]; 0-15 min): 0A
- Pedaling ([2]; 0-15 min): 0A
- Piloerection ([2]; 0-15 min): 0A
- Ptosis ([2]; 0-15 min): 0A
- Salivation ([2]; 0-15 min): 0A
- Sedation ([2]; 0-15 min): 0A
- Tachypnea ([2]; 0-15 min): 0A
- Tremors ([2]; 0-15 min): 0A
- Urination ([2]; 0-15 min): 0A
- Vocalization ([2]; 0-15 min): 0A
- Ataxia ([2]; 15 min): 0A
- Convulsions ([2]; 15 min): 0A
- Hypnosis ([2]; 15 min): 0A
- Limb abduction ([2]; 15 min): 0A
- Muscle tone ([2]; 15 min): 0A
- Pedaling ([2]; 15 min): 0A
- Piloerection ([2]; 15 min): 0A
- Ptosis ([2]; 15 min): 0A
- Salivation ([2]; 15 min): 0A
- Sedation ([2]; 15 min): 0A
- Tachypnea ([2]; 15 min): 0A
- Tremors ([2]; 15 min): 0A
- Urination ([2]; 15 min): 0A
- Vocalization ([2]; 15 min): 0A
- Ataxia ([2]; 30 min): 0A
- Convulsions ([2]; 30 min): 0A
- Hypnosis ([2]; 30 min): 0A
- Limb abduction ([2]; 30 min): 0A
- Muscle tone ([2]; 30 min): 0A
- Pedaling ([2]; 30 min): 0A
- Piloerection ([2]; 30 min): 0A
- Ptosis ([2]; 30 min): 0A
- Salivation ([2]; 30 min): 0A
- Sedation ([2]; 30 min): 0A
- Tachypnea ([2]; 30 min): 0A
- Tremors ([2]; 30 min): 0A
- Urination ([2]; 30 min): 0A
- Vocalization ([2]; 30 min): 0A
- Ataxia ([2]; 60 min): 0A
- Convulsions ([2]; 60 min): 0A
- Hypnosis ([2]; 60 min): 0A
- Limb abduction ([2]; 60 min): 0A
- Muscle tone ([2]; 60 min): 0A
- Pedaling ([2]; 60 min): 0A
- Piloerection ([2]; 60 min): 0A
- Ptosis ([2]; 60 min): 0A
- Salivation ([2]; 60 min): 0A
- Sedation ([2]; 60 min): 0A
- Tachypnea ([2]; 60 min): 0A
- Tremors ([2]; 60 min): 0A
- Urination ([2]; 60 min): 0A
- Vocalization ([2]; 60 min): 0A
- Ataxia ([2]; 2h): 0A
- Convulsions ([2]; 2h): 0A
- Hypnosis ([2]; 2h): 0A
- Limb abduction ([2]; 2h): 0A
- Muscle tone ([2]; 2h): 0A
- Pedaling ([2]; 2h): 0A
- Piloerection ([2]; 2h): 0A
- Ptosis ([2]; 2h): 0A
- Salivation ([2]; 2h): 0A
- Sedation ([2]; 2h): 0A
- Tachypnea ([2]; 2h): 0A
- Tremors ([2]; 2h): 0A
- Urination ([2]; 2h): 0A
- Vocalization ([2]; 2h): 0A
- Ataxia ([2]; 3h): 0A
- Convulsions ([2]; 3h): 0A
- Hypnosis ([2]; 3h): 0A
- Limb abduction ([2]; 3h): 0A
- Muscle tone ([2]; 3h): 0A
- Pedaling ([2]; 3h): 0A
- Piloerection ([2]; 3h): 0A
- Ptosis ([2]; 3h): 0A
- Salivation ([2]; 3h): 0A
- Sedation ([2]; 3h): 0A
- Tachypnea ([2]; 3h): 0A
- Tremors ([2]; 3h): 0A
- Urination ([2]; 3h): 0A
- Vocalization ([2]; 3h): 0A
- Ataxia ([2]; 4h): 0A
- Convulsions ([2]; 4h): 0A
- Hypnosis ([2]; 4h): 0A
- Limb abduction ([2]; 4h): 0A
- Muscle tone ([2]; 4h): 0A
- Pedaling ([2]; 4h): 0A
- Piloerection ([2]; 4h): 0A
- Ptosis ([2]; 4h): 0A
- Salivation ([2]; 4h): 0A
- Sedation ([2]; 4h): 0A
- Tachypnea ([2]; 4h): 0A
- Tremors ([2]; 4h): 0A
- Urination ([2]; 4h): 0A
- Vocalization ([2]; 4h): 0A
- Ataxia ([2]; 24h): 0A
- Convulsions ([2]; 24h): 0A
- Hypnosis ([2]; 24h): 0A
- Limb abduction ([2]; 24h): 0A
- Muscle tone ([2]; 24h): 0A
- Pedaling ([2]; 24h): 0A
- Piloerection ([2]; 24h): 0A
- Ptosis ([2]; 24h): 0A
- Salivation ([2]; 24h): 0A
- Sedation ([2]; 24h): 0A
- Tachypnea ([2]; 24h): 0A
- Tremors ([2]; 24h): 0A
- Urination ([2]; 24h): 0A
- Vocalization ([2]; 24h): 0A

- Kinetic solubility (Kinetic solubility; acidic pH (1.7), 5 µM): 75%
- Kinetic solubility (Kinetic solubility; [3]): above 60%
- Kinetic solubility (Kinetic solubility; basic pH (8.9), 5 µM): 75%
- Kinetic solubility (Kinetic solubility; neutral pH (7.4), 5 µM): 75%
SMILES: COc1ccc(NS(=O)(=O)c2cccc(NC(=O)c3cnccn3)c2)cc1 [AC-R008, N-(3-(N-(4-methoxyphenyl)sulfamoyl)phenyl)pyrazine-2-carboxamide]
- CC50 at 72 h [1]: 99 µM
- Ataxia ([2]; 0-15 min): 0A
- Convulsions ([2]; 0-15 min): 0A
- Hypnosis ([2]; 0-15 min): 0A
- Limb abduction ([2]; 0-15 min): 0A
- Muscle tone ([2]; 0-15 min): 0A
- Pedaling ([2]; 0-15 min): 0A
- Piloerection ([2]; 0-15 min): 0A
- Ptosis ([2]; 0-15 min): 0A
- Salivation ([2]; 0-15 min): 0A
- Sedation ([2]; 0-15 min): 0A
- Tachypnea ([2]; 0-15 min): 0A
- Tremors ([2]; 0-15 min): 0A
- Urination ([2]; 0-15 min): 0A
- Vocalization ([2]; 0-15 min): 0A
- Ataxia ([2]; 15 min): 0A
- Convulsions ([2]; 15 min): 0A
- Hypnosis ([2]; 15 min): 0A
- Limb abduction ([2]; 15 min): 0A
- Muscle tone ([2]; 15 min): 0A
- Pedaling ([2]; 15 min): 0A
- Piloerection ([2]; 15 min): 0A
- Ptosis ([2]; 15 min): 0A
- Salivation ([2]; 15 min): 0A
- Sedation ([2]; 15 min): 0A
- Tachypnea ([2]; 15 min): 0A
- Tremors ([2]; 15 min): 0A
- Urination ([2]; 15 min): 0A
- Vocalization ([2]; 15 min): 0A
- Ataxia ([2]; 30 min): 0A
- Convulsions ([2]; 30 min): 0A
- Hypnosis ([2]; 30 min): 0A
- Limb abduction ([2]; 30 min): 0A
- Muscle tone ([2]; 30 min): 0A
- Pedaling ([2]; 30 min): 0A
- Piloerection ([2]; 30 min): 0A
- Ptosis ([2]; 30 min): 0A
- Salivation ([2]; 30 min): 0A
- Sedation ([2]; 30 min): 0A
- Tachypnea ([2]; 30 min): 0A
- Tremors ([2]; 30 min): 0A
- Urination ([2]; 30 min): 0A
- Vocalization ([2]; 30 min): 0A
- Ataxia ([2]; 60 min): 0A
- Convulsions ([2]; 60 min): 0A
- Hypnosis ([2]; 60 min): 0A
- Limb abduction ([2]; 60 min): 0A
- Muscle tone ([2]; 60 min): 0A
- Pedaling ([2]; 60 min): 0A
- Piloerection ([2]; 60 min): 0A
- Ptosis ([2]; 60 min): 0A
- Salivation ([2]; 60 min): 0A
- Sedation ([2]; 60 min): 0A
- Tachypnea ([2]; 60 min): 0A
- Tremors ([2]; 60 min): 0A
- Urination ([2]; 60 min): 0A
- Vocalization ([2]; 60 min): 0A
- Ataxia ([2]; 2h): 0A
- Convulsions ([2]; 2h): 0A
- Hypnosis ([2]; 2h): 0A
- Limb abduction ([2]; 2h): 0A
- Muscle tone ([2]; 2h): 0A
- Pedaling ([2]; 2h): 0A
- Piloerection ([2]; 2h): 0A
- Ptosis ([2]; 2h): 0A
- Salivation ([2]; 2h): 0A
- Sedation ([2]; 2h): 0A
- Tachypnea ([2]; 2h): 0A
- Tremors ([2]; 2h): 0A
- Urination ([2]; 2h): 0A
- Vocalization ([2]; 2h): 0A
- Ataxia ([2]; 3h): 0A
- Convulsions ([2]; 3h): 0A
- Hypnosis ([2]; 3h): 0A
- Limb abduction ([2]; 3h): 0A
- Muscle tone ([2]; 3h): 0A
- Pedaling ([2]; 3h): 0A
- Piloerection ([2]; 3h): 0A
- Ptosis ([2]; 3h): 0A
- Salivation ([2]; 3h): 0A
- Sedation ([2]; 3h): 0A
- Tachypnea ([2]; 3h): 0A
- Tremors ([2]; 3h): 0A
- Urination ([2]; 3h): 0A
- Vocalization ([2]; 3h): 0A
- Ataxia ([2]; 4h): 0A
- Convulsions ([2]; 4h): 0A
- Hypnosis ([2]; 4h): 0A
- Limb abduction ([2]; 4h): 0A
- Muscle tone ([2]; 4h): 0A
- Pedaling ([2]; 4h): 0A
- Piloerection ([2]; 4h): 0A
- Ptosis ([2]; 4h): 0A
- Salivation ([2]; 4h): 0A
- Sedation ([2]; 4h): 0A
- Tachypnea ([2]; 4h): 0A
- Tremors ([2]; 4h): 0A
- Urination ([2]; 4h): 0A
- Vocalization ([2]; 4h): 0A
- Ataxia ([2]; 24h): 0A
- Convulsions ([2]; 24h): 0A
- Hypnosis ([2]; 24h): 0A
- Limb abduction ([2]; 24h): 0A
- Muscle tone ([2]; 24h): 0A
- Pedaling ([2]; 24h): 0A
- Piloerection ([2]; 24h): 0A
- Ptosis ([2]; 24h): 0A
- Salivation ([2]; 24h): 0A
- Sedation ([2]; 24h): 0A
- Tachypnea ([2]; 24h): 0A
- Tremors ([2]; 24h): 0A
- Urination ([2]; 24h): 0A
- Vocalization ([2]; 24h): 0A
